Data as given in patent publication US7754064B2, “Methods and apparatus for the on-site production of hydrogen peroxide” (Eltron Research & Development, priority 2006, dated 2010).

How the values were obtained:
Vibrio hollisae = details: 20° C., 3-50 ppm H2O2, 6-30 minutes exposure
Description: A stock culture of Vibrio hollisae was diluted to 1×10-5 with micropore filtered seawater (FSW). The dilution was calculated to yield a sample density of roughly 350 CFUs/mL after 48 hr of grow up. The experimental matrix consisted of peroxide concentration versus exposure time. The bacteria were exposed to the peroxide in liquid cultures, and then the treated bacteria were plated onto agar plates and colony counts done at 24 and 48 hrs. Data were analyzed for LD-100 conditions for maximal effect at lowest concentration and shortest exposure time. Six tubes of 5 mL bacterial culture were prepared. […] A control sample containing NO peroxide was also prepared. At each treatment exposure time point (6, 10, 15, and 30 minutes respectively), 1 mL was removed from each tube and filtered through a mixed cellulose ester filter (0.45 micron pore size, 47 mm dia., Fisher #09-719-1A). Each filter was then placed onto a TCBS (thiosulfate, citrate, bile, and sucrose) media plate and incubated for 48 hr at room temperature (23° C.). Standard colony counts were then made for the entire filter for each treatment condition. The procedure was repeated in triplicate. For each repetition, three separate samples (batches) were prepared and two duplicate trials were run for each batch sample. The results were statistically analyzed using ANOVA and paired student t-test paired comparisons. […]

Perkinsus marinus = details: treatment time 30 minutes, four trials
Description: The final series of trials explored the effectiveness of the treatment against the protozoan Perkinsus marinus which is pathogenic to shellfish and causes the disease Dermo. Essentially the same protocol used for QPX was adapted to Perkinsus and represented a novel method of determining Perkinsus viability after disinfection treatments. Here four duplicate trials were run, again with a treatment time of 30 minutes.

Pseudomonas cepacia = details: alkaline solutions of 1000 ppm H2O2, filtration units
biofouling = details: cited from earlier work

Description for QPX (Quahog Parasite-X): For the QPX studies, a stock QPX culture (Quahog Parasite-X, a protista slime mold causing shellfish disease) was washed three times in sterile nature seawater (NSW) to remove the nutrient media and disperse the encapsulating mucous mass. The washed sample was then re-suspended in sterile NSW (working culture). A sample aliquot was removed and diluted (1:1) in sterile NSW to determine the actual cell density. […] A control sample with NO peroxide in the treatment solution was also prepared. […] After incubation (48 hrs) the remainder of the innocula were centrifiged at 10,000 G for 2 minutes. All fluid was removed from the tube to leave a final volume of 100 μL. Propidium iodide (100 μL; 20 g/mL) was added to each tube and allowed to sit for 30 minutes in the dark at room temperature. The tubes were then centrifuged (10,000 G for 2 minutes) and the resulting pellet washed three times with filtered NSW (250 μL). After the third wash, 200 μL of fluid was removed from each tube and the pellet was re-suspended in the remaining 50 μL of fluid. The fluids generated from this preparation were added to a Neubauer hemocytometer counting chamber and the cell concentrations were determined between treatments. […]
Excerpt for mixed plankton: This study largely entailed LD50 and LD100 lethality screening of the target chemistry produced by the electrolytic system under development to natural marine organisms. Specifically, the work focused on organisms with sizes of less than 100 μm as larger organisms can be readily eliminated by other technologies (screening or hydrocyclones). Within this size regime normal crustaceans, planktons, and etc. obtained by trawling were targeted. […] For the trawled organisms and the protozoan, destruction was noted by lack of motility.
Mixed indigenous zooplankton (these provided random samples of a variety of organisms as might be encountered in ballast water) were obtained by plankton trawls from the waters off Woods Hole, Mass. and the toxicity assays focused on zooplankton (such as dinoflagellates which are less prone to sedimentation than say diatoms) where viability could be readily assessed through motility monitoring. After the samples were collected they were counted and separated into sample populations under a dissecting scope with a low heat lamp using standard techniques. […]
Toxicity studies were performed on the targeted plankton samples by exposing them to synthetic cell product and monitored until mortality occurred. […]

SMILES: OO [hydrogen peroxide]
- time dosage values sufficient to achieve 2 log kills (99%) (Vibrio hollisae): 1000 to 2000 ppm min.
- time*dosage values sufficient to reduce occurrence of Perkinsus to hinder spread of disease (Perkinsus marinus): 1500 to 5000 ppm
- average viable cell count (QPX (Quahog Parasite-X); 10 ppm H2O2, 30 min., 20° C., average of two trials): 430 cells/L
- resistance to the treatment compared with general plankton and Vibrio ssp. (QPX (Quahog Parasite-X); 30 minutes treatment, 0-150 ppm): slightly more resistant
- Pseudomonas cepacia eliminated (Pseudomonas cepacia): more than 100%
- log kill of Pseudomonas cepacia (Pseudomonas cepacia): 7 log
- concentration typically required for sufficient effectiveness in sterilization (biofouling; industrial disinfection (powerplant biofouling, sewage treatment)): 50-200 ppm
- concentration that can be effective towards fouling control (biofouling; recent data): 2 ppm
- time*dosage factor for plankton kill (mixed plankton; mixed plankton, 4, 10 and 20° C., from LD-50 and LD-100, averaged over four concentrations): 1000 to 3000 ppm min.
- LD50's as percent of 100% mortality times (mixed plankton; mixed zooplankton in natural seawater with added H2O2): 40-50%
